Read-outs that look alike come from different tables or passages of the source. Bridge positions count the residues as written; N and C are the ends. Square brackets hold non-standard residues; d marks the D form. Peptide text beside a SMILES is read from it. * marks the point of attachment. EDDnp = O=[N+]([O-])c1ccc(NCCN*)c([N+](=O)[O-])c1; AMC = Cc1cc(=O)oc2cc(N*)ccc12; 2Abz = Nc1ccccc1C(=O)O; Cbz = O=C(OCc1ccccc1)*
What was measured:
[1] = target: T1, elastase-1 (Sus scrofa, UniProt P00772); experiment: Kinetic characterization of elastase-1 inhibition (Michaelis-Menten, Dixon plot); assay type: biochemical; settings: for Elastase inhibition: data not shown
T1 construct: purchased Sigma-Aldrich
Procedure: To determine the inhibition constant (Ki ) of the peptide, firstly the Michaelis-Menten constant (Km ) for the Abz-FRSSRQ-EDDnp hydrolysis by elastase-1 was obtained. For this, the concentrations of 2.5 µM, 5.0 µM, 10.0 µM, 15.0 µM, 25.0 µM and 50.0 µM of the substrate were used, in Tris 50 mM, NaCl 50 mM pH 8.0. Initial rates were determined at an enzyme concentration (100 ng) that would hydrolyze less than 10% of the substrate. The kinetic parameters (Km and Vmax ) were calculated by Michaelis-Menten equation using the Grafit 5 software (Erithacus Software, West Sussex, UK), as previously described. All experiments were performed in duplicate.
The Kunitz-type peptide quantification was determined by the BCA method using insulin as standard (5 µg/µL, 10 µg/µL, 25 µg/µL, 50 µg/µL e 100 µg/µL). To determine the mechanism of action of the Kunitz-type inhibitor, two concentrations of Abz-FRSSRQ-EDDnp, 6.8 µM and 3.4 µM, and two concentrations of the purified peptide, 0.63 µM and 0.94 µM, were utilized. For each substrate concentration it was made a control test (absence of the peptide). The assays were performed in duplicate and during all experiment the consumption of substrate was maintained under 10%. The reactions were monitored in the fluorimeter, as described above, and were analyzed in the Grafit 5 software (Erithacus Software, West Sussex, UK). The mechanism and the inhibition constants were determined through the Dixon plot (1/V x [I]) equation [20]. The plot was made in the software GraphPad Prism 5.

[2] = target: T1, elastase-1; experiment: Stability test of peptides against hydrolysis by elastase-1 (RP-HPLC); assay type: in vitro ADME; settings: data not shown; for Stability against hydrolysis by elastase-1: peptide 50 mM (so in the source), elastase-1 300 ng, Tris 50 mM, NaCl 50 mM pH 8.0, 37 °C, 4 hours and overnight, C18 RP-HPLC, UV 214 nm, duplicate
Procedure: Samples containing only the synthetic peptides were used as negative control. After incubation, samples were analyzed, in duplicate by reverse phase chromatography on HPLC, using a Shim-pack C-18 column in the same conditions described above.

[3] = target: T2, recombinant human cathepsin L (Homo sapiens, UniProt P07711); experiment: Stability test of peptides against hydrolysis by cathepsin L (RP-HPLC); assay type: in vitro ADME; settings: cathepsin L 10 ng, NaCl 200 mM, EDTA 5 mM, DTT 6.25 mM pH 5.5; 37 °C; 4 hours and overnight (16 hours); C18 RP-HPLC, UV 214 nm; duplicate; data not shown
T2 construct: purchased R&D systems
Procedure: The synthetic peptides PEP1 and PEP2 (50 mM) were incubated with elastase-1 (300 ng), in Tris 50 mM, NaCl 50 mM pH 8.0 buffer, and cathepsin L (10 ng), in 50 mM, NaCl 200 mM, EDTA 5 mM, DTT 6.25 mM pH 5.5 buffer, at 37 °C in two different time intervals, 4 hours and overnight. Samples containing only the synthetic peptides were used as negative control. After incubation, samples were analyzed, in duplicate by reverse phase chromatography on HPLC, using a Shim-pack C-18 column in the same conditions described above.
Target sequence in this assay (P07711 114-333): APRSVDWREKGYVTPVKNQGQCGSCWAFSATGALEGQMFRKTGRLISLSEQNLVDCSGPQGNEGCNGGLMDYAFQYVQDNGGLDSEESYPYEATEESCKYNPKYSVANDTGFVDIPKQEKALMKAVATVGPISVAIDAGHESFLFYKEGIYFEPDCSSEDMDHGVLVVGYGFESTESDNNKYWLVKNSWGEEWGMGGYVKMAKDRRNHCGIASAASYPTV

[4] = target: T2, recombinant human cathepsin L; experiment: Kinetic characterization of cathepsin L inhibition (Michaelis-Menten, Dixon plot); assay type: biochemical
Procedure: To obtain the Michaelis-Menten constant (Km ) of the Z-FR-MCA hydrolysis by cathepsin L (1 ng), 1 µM, 2.5 µM, 5.0 µM, 7.5 µM, 12.5 µM, 15 µM, 20 µM concentrations of Z-FR-MCA substrate were tested in 50 mM, NaCl 200 mM, EDTA 5 mM, DTT 6.25 mM pH 5.5 buffer (final volume of 100 µL).The reactions were continuously monitored (fluorescence at λEM 480 nm and λEX 360 nm) in a fluorimeter (425-301 Hidex, Finland), as described. The maximum speed (Vmax ) and the Km were obtained in the Grafit 5 software. All experiments were performed in duplicate. To determine the mechanism of inhibition and the inhibition constant (Ki ) of inhibitor PEP2, two concentrations of the Z-FR-MCA, 5.2 µM (2 Km ) and 7.8 (3 Km ), and three concentrations of the inhibitor PEP2, 1 µM, 2.5 µM and 5 µM, were used. Samples without PEP2 for each substrate concentration were utilized. The experiments were carried out in duplicates and the consumption of the substrate was maintained under 10%. The results were analyzed in the Grafit 5 software. The mechanism and the inhibition constants were determined through the Dixon plot (1/V x [I]) equation [20], using the software GraphPad Prism 5.

[5] = system: trypsin; experiment: Trypsin inhibition; assay type: biochemical; settings: data not shown
[6] = system: chymotrypsin; experiment: Chymotrypsin inhibition; assay type: biochemical; settings: data not shown
[7] = system: potassium channel; settings: read-out: Potassium channel blocker activity IC50; cited from earlier work
[8] = target: T3, pancreatic elastase (EC 3.4.21.36) (UniProt P00772 27-266); experiment: enzyme inhibition kinetics (fluorimetric, Dixon plot); elastase-1 (100 ng) with the FRET substrate Abz-FRSSRQ-EDDnp at 3.4 and 6.8 µM, purified peptide at 0.63 and 0.94 µM; Tris 50 mM, NaCl 50 mM, pH 8.0, 37 °C; duplicates; mechanism found uncompetitive; settings: both partners purified
T3 construct: also called elastase-1; source: bought: Sigma-Aldrich
T3 sequence (P00772 27-266): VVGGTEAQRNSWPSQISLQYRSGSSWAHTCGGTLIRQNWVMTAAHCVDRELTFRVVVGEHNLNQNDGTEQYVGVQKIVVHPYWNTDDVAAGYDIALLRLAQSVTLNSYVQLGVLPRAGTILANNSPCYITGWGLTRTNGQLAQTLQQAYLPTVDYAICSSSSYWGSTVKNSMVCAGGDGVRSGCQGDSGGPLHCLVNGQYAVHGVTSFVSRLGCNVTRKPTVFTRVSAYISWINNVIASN

T1 sequence (P00772 27-266): as above

For `N=C(N)NCCC[C@H](NC(=O)[C@H](Cc1ccccc1)NC(=O)c1ccccc1N)C(=O)N[C@@H](CO)C(=O)N[C@@H](CO)C(=O)N[C@@H](CCCNC(=N)N)C(=O)N[C@@H](CCC(N)=O)C(=O)NCCNc1ccc([N+](=O)[O-])cc1[N+](=O)[O-]` [Abz-FRSSRQ-EDDnp, reference compound] (H-[2Abz]FRSSRQ-EDDnp), the Km ([1]; Michaelis-Menten fit, Std. Error 2.2721 in its own column, read-out: Km, fit parameter value (Additional file 4A), elastase-1) was 10.6 µM and the Km ([1]; substrate 2.5-50.0 µM, elastase-1 100 ng, Tris 50 mM, NaCl 50 mM pH 8.0, Grafit 5, duplicate, read-out: Michaelis-Menten constant (Km) of substrate cleavage by elastase-1) was 10.7 µM.

In the case of `C[C@@H](O)[C@H](NC(=O)[C@H](Cc1ccccc1)NC(=O)CNC(=O)[C@H](CCC(=O)O)NC(=O)[C@H](CS)NC(=O)[C@H](CCC(N)=O)NC(=O)[C@H](CCCCN)NC(=O)[C@@H](N)CCCCN)C(=O)N[C@@H](Cc1c[nH]c2ccccc12)C(=O)N[C@@H](CO)C(=O)NCC(=O)N[C@@H](CS)C(=O)NCC(=O)NCC(=O)N[C@@H](CC(N)=O)C(=O)N[C@@H](CO)C(=O)O` [PEP1] (H-KKQCEGFTWSGCGGNS-OH), the “Stability against hydrolysis by elastase-1” value [2] is reported as “not stable” and the “Stability against hydrolysis by cathepsin L” value [3] is reported as “hydrolyzed”.

With `CC[C@H](C)[C@@H]1NC(=O)[C@H](CCCCN)NC(=O)[C@H](CCC(N)=O)NC(=O)[C@H](Cc2ccc(O)cc2)NC(=O)[C@@H](NC(=O)[C@H](CCCNC(=N)N)NC(=O)CNC(=O)[C@@H]2CCCN2)CSSC[C@@H](C(=O)NCC(=O)NCC(=O)O)NC(=O)CNC(=O)[C@H](CO)NC(=O)[C@H](Cc2c[nH]c3ccccc23)NC(=O)[C@H]([C@@H](C)O)NC(=O)[C@H](Cc2ccccc2)NC(=O)CNC(=O)[C@H](CCC(=O)O)NC(=O)[C@H](C(C)C)NC(=O)[C@H](CCC(N)=O)NC(=O)[C@H](CCCCN)NC(=O)[C@H](CCCCN)NC(=O)[C@H](CCCCN)NC(=O)[C@H](CCC(N)=O)NC(=O)[C@H](CC(N)=O)NC(=O)[C@H](Cc2ccc(O)cc2)NC(=O)[C@H](Cc2ccc(O)cc2)NC(=O)[C@H](Cc2ccccc2)NC(=O)[C@H](C)NC(=O)[C@@H]2CCCN2C1=O` [PEP2] (H-PGRCYQKIPAFYYNQKKKQVEGFTWSGCGG-OH; disulfide 4-28) the Ki ([4]; Dixon plot, Z-FR-MCA 5.2 and 7.8 µM (2 and 3 Km), PEP2 0, 1.0, 2.5 and 5.0 µM, cathepsin L 1 ng, pH 5.5 buffer with DTT 6.25 mM, duplicate, read-out: Inhibition constant (Ki) for cathepsin L) was 1960 nM, the “Stability against hydrolysis by elastase-1” value [2] was “not stable” and the “Stability against hydrolysis by cathepsin L” value [3] was “not degraded”.

Cbz-Phe-Arg-{AMC} showed a Km ([4]; Michaelis-Menten fit, Std. Error 0.4867 in its own column, read-out: Km, fit parameter value (Additional file 4B), cathepsin L) of 2.65 µM and a Km ([4]; substrate 1-20 µM, cathepsin L 1 ng, pH 5.5 buffer, Grafit 5, duplicate, read-out: Michaelis-Menten constant (Km) of substrate hydrolysis by cathepsin L) of 2.65 µM.

With “Kunitz-type serine protease inhibitor homolog dendrotoxin I (QPLRKLCILHRNPGRCYQKIPAFYYNQKKKQCEGFTWSGCGGNSNRFKTIEECRRTCIRK) [Kunitz-type peptide]” the “Mechanism of inhibition of elastase-1” value ([1]; Dixon plot (1/V versus [I]), parallel lines) was “uncompetitive inhibitor”, the Elastase inhibition ([1]; peptide 1.26 µM) was “above 70%” and the Elastase inhibition ([1]; peptide 3.52 µM) was “above 70%”. For the same molecule, the “Stability on incubation with elastase-1 (substrate or not)” value ([2]; overnight incubation with elastase-1) was “not an elastase-1 substrate”, the Inhibition of trypsin [5] was “no other serine protease inhibitions” and the Inhibition of chymotrypsin [6] was “no other serine protease inhibitions”. The IC50 [7] was 0.13 to 50 nM.

B1: Kunitz-type serine protease inhibitor homolog dendrotoxin I (peptide)
chain: QPLRKLCILHRNPGRCYQKIPAFYYNQKKKQCEGFTWSGCGGNSNRFKTIEECRRTCIRK
notes: also called Kunitz-type peptide; Kunitz peptide
B1 gave a Ki [8] of 8000 nM.
